Test results published in US6914122B2 (priority 2000, dated 2005).
pEC50, pKi: −log10 of the molar value.

Experiments:
[1] = molecular target: T1, HCV serine protease (subtype 1b, 1bNS4A21-32GS-GS NS 3-81 I17K) in HeLa/Huh7 cells (Hepatitis C virus genotype 1b, UniProt P26663, I1043K); assay: Cell bioassay: HCV serine protease cell-based trans-cleavage assay; design: species or system Hepatitis C virus (subtype 1b)
T1 construct: 1bNS4A21-32GS-GS NS 3-81 I17K; expressed in transfected cells; host or cells: HeLa/Huh7 cells

[2] = molecular target: Recombinant heterodimeric HCV NS3/NS4A protease (strain 1a) (Hepatitis C virus genotype 1a, UniProt P27958); assay: biochemical; design: species or system HCV (strain 1a)

`CCCC(NC(=O)[C@@H]1Cc2cccc(c2)Oc2ccc(cc2)CCC(=O)N[C@@H](C2CCCCC2)C(=O)O1)C(=O)C(=O)NCC(=O)N[C@H](C(=O)N(C)C)c1ccccc1` (stereo partly shown) [Example 35] showed a pEC50 [1] of 4.70 and a pKi [2] of 4.00 to 5.96.
With `CCCC(NC(=O)C1Cc2cccc(c2)OCCCCCCC(=O)NC(C2CCCCC2)C(=O)O1)C(=O)C(=O)NCC(=O)N[C@H](C(=O)N(C)C)c1ccccc1` (stereo partly shown) [Example 36] the pEC50 [1] was 5.05 and the pKi [2] was 4.00 to 5.96.
